Results published in patent US10806732B2, “Stable anti-neoplastic pharmaceutical composition comprising temozolomide and method of preparing the composition” (DOUBLE BOND PHARMACEUTICAL AB, priority 2016, dated 2020).

Key:
[1] = Stability of TMZ in dextran phosphate gel of pH 7.2-7.4 (prior art BY 11838 C1); assay type: physicochemical
From the text: BY 11838 C1 discloses a combined treatment method for malignant brain tumors. The method comprises surgical excision of the tumor tissue followed by application of TMZ comprised by high substituted dextran phosphate gel of pH 7.2-7.4. The dry weight ratio of TMZ/high substituted dextran phosphate in the preparation is 0.03:1.0. The freeze-dried gel is reconstituted by the addition of sterile water and pH adjusted prior to use, then applied to the wound surface. […] In addition, the structure of highly substituted dextran phosphate contains a large number of di- and tri-substituted phosphoric acid groups, which provide additional cross-linking of macromolecules, which reduces the ability to absorb water and limits the amount of TMZ to 30 mg/g in the gel of highly substituted dextran phosphate. The low concentration of TMZ in the composition implies that the volume must be increased to administrate higher dose of the substance, i.e., the prodrug TMZ, and thus also the amount highly substituted dextran phosphates administered is increased. A 2- or 3-fold increase in the amount of highly substituted dextran phosphates can lead to undesirable reactions associated with the duration of the biodegradation process. […]

[2] = oral administration; cited from earlier work

- stability of TMZ (hydrolysis to AIC) [1]: decomposes
SMILES: Cn1nnc2c(C(N)=O)ncn2c1=O [TMZ, 4-methyl-5-oxo-2,3,4,6,8-pentazabicyclo[4.3.0]nona-2,7,9-triene-9-carboxamide]
- half-life [2]: 1.8 h
- time to peak plasma concentration [2]: 0.7 h
